Assay results reported in patent publication US12364733B1, “Method for treating septic shock” (Inotrem, priority 2018, dated 2025).

Test system: septic shock patients
Assay: Phase IIa clinical trial with nangibotide in septic shock patients: SOFA score evolution
Type: in vivo, human
Protocol: This was a randomized, double-blind, two-stage, placebo-controlled study. As described in FIG. 7, the study was composed of 2 stages with a similar treatment regimen, in which 0.3, 1.0 or 3.0 mg/kg/h of nangibotide (corresponding to peptide LR12, having an amino acid sequence as set forth in SEQ ID NO: 9, also known as motrem) was tested versus placebo. All patients with a diagnosis of septic shock were considered for study participation. All potential study patients underwent standard care management procedures. Patients with evidence of septic shock according to the Sepsis-3 definition (Singer et al, JAMA 2016) were considered for inclusion (i.e., patients suffering from sepsis and having (i) persisting hypotension requiring vasopressors to maintain their mean arterial pressure ≥65 mm Hg and (ii) a serum lactate level >2 mmol/L (18 mg/dL) despite adequate volume resuscitation).
After screening for eligibility, patients were randomized to one of the treatment arms. Then, they received either a 5 mg/kg loading dose of nangibotide over 15 minutes followed by a continuous intravenous (i.v.) infusion of nangibotide or a matching placebo on top of standard of care. Treatment with study drug was initiated as early as possible, but no later than 24 hours after the onset of septic shock, defined by the start of vasopressor therapy. Patients were treated until 12 (±2) hours after the resolution of their septic shock (defined as vasopressor withdrawal) with a maximum treatment duration of 5 days (120 hours).
Adverse events (AEs) were coded using the MedDRA dictionary version 18.1. Treatment-emergent adverse events (TEAEs) were summarized and listed. Analysis was performed in 49 septic shock patients. The demographic and baseline characteristics were summarized in a descriptive fashion within each population: categorical variables were summarized by contingency tables (frequencies and percentages). sTREM-1 levels at day 1 were also described (mean, standard deviation, standard error, median, quartiles and range, minimum and maximum values). Mortality rates were reported by frequency and percentage. For continuous endpoints, i.e., the sequential organ failure assessment (SOFA), missing data were imputed using LOCF (Last Observation Carry-Forward). For time-to-event analyses, i.e., duration of invasive mechanical ventilation (IMV), duration of continuous renal replacement therapy (CRRT), survival, censored data techniques were utilized. In addition, a sensitivity analysis of time to event data (except survival) was performed using censoring at maximum limit for the corresponding observation period (i.e., either day 28 or day 90). […] The following comparisons were made: each nangibotide dose arm to placebo, all nangibotide doses combined versus placebo, and dose-response using an ordinal trend test. Exploratory composite endpoint: incidence (number and proportion) of patients alive at day 28 and free of vasopressor, free of IMV and free of CRRT were summarized by treatment and compared between treatments with a Fisher's exact test. For pharmacodynamic markers, log transformed data were represented as percentage change from baseline at day 5 or End of Infusion (EOI) if end of infusion was stopped before day 5. […] “All nangibotide” refers to analyses obtained by pooling data from 0.3, 1 and 3 mg/kg/h nangibotide-treated groups.

[1] = patients with high sTREM-1 at baseline (above median 433 pg/mL), Day 1, 0.3 mg/kg/h
[2] = patients with high sTREM-1 at baseline (above median 433 pg/mL), Day 1, 1.0 mg/kg/h
[3] = patients with high sTREM-1 at baseline (above median 433 pg/mL), Day 1, 3.0 mg/kg/h
[4] = patients with high sTREM-1 at baseline (above median 433 pg/mL), Day 1, all nangibotide doses pooled
[5] = patients with high sTREM-1 at baseline (above median 433 pg/mL), Day 2, 0.3 mg/kg/h
[6] = patients with high sTREM-1 at baseline (above median 433 pg/mL), Day 2, 1.0 mg/kg/h
[7] = patients with high sTREM-1 at baseline (above median 433 pg/mL), Day 2, 3.0 mg/kg/h
[8] = patients with high sTREM-1 at baseline (above median 433 pg/mL), Day 2, all nangibotide doses pooled
[9] = patients with high sTREM-1 at baseline (above median 433 pg/mL), Day 3, 0.3 mg/kg/h
[10] = patients with high sTREM-1 at baseline (above median 433 pg/mL), Day 3, 1.0 mg/kg/h
[11] = patients with high sTREM-1 at baseline (above median 433 pg/mL), Day 3, 3.0 mg/kg/h
[12] = patients with high sTREM-1 at baseline (above median 433 pg/mL), Day 3, all nangibotide doses pooled
[13] = patients with high sTREM-1 at baseline (above median 433 pg/mL), Day 4, 0.3 mg/kg/h
[14] = patients with high sTREM-1 at baseline (above median 433 pg/mL), Day 4, 1.0 mg/kg/h
[15] = patients with high sTREM-1 at baseline (above median 433 pg/mL), Day 4, 3.0 mg/kg/h
[16] = patients with high sTREM-1 at baseline (above median 433 pg/mL), Day 4, all nangibotide doses pooled
[17] = patients with high sTREM-1 at baseline (above median 433 pg/mL), Day 5, 1.0 mg/kg/h
[18] = patients with low sTREM-1 at baseline (below median 433 pg/mL), Day 1, 0.3 mg/kg/h
[19] = patients with low sTREM-1 at baseline (below median 433 pg/mL), Day 1, 1.0 mg/kg/h
[20] = patients with low sTREM-1 at baseline (below median 433 pg/mL), Day 1, 3.0 mg/kg/h
[21] = patients with low sTREM-1 at baseline (below median 433 pg/mL), Day 1, all nangibotide doses pooled
[22] = patients with low sTREM-1 at baseline (below median 433 pg/mL), Day 2, 0.3 mg/kg/h
[23] = patients with low sTREM-1 at baseline (below median 433 pg/mL), Day 2, 1.0 mg/kg/h
[24] = patients with low sTREM-1 at baseline (below median 433 pg/mL), Day 2, 3.0 mg/kg/h
[25] = patients with low sTREM-1 at baseline (below median 433 pg/mL), Day 2, all nangibotide doses pooled
[26] = patients with low sTREM-1 at baseline (below median 433 pg/mL), Day 3, 0.3 mg/kg/h
[27] = patients with low sTREM-1 at baseline (below median 433 pg/mL), Day 3, 1.0 mg/kg/h

nangibotide (LQEEDAGEYGCM; TLT-1 peptide)
nangibotide efficacy by baseline sTREM-1 subgroup (patients with baseline sTREM-1 above the median (above 433 pg/mL), pharmacodynamic parameters, medical support, SOFA score): more pronounced
SOFA score evolution (change versus baseline, LOCF), LSMean (SE) [1]: 0.16 (0.60)
SOFA score, estimated difference (SE) vs. placebo [1]: 0.14 (0.90)
SOFA score evolution (change versus baseline, LOCF), LSMean (SE) [2]: −0.50 (0.59)
SOFA score, estimated difference (SE) vs. placebo [2]: −0.52 (0.89)
SOFA score evolution (change versus baseline, LOCF), LSMean (SE) [3]: −0.38 (0.51)
SOFA score, estimated difference (SE) vs. placebo [3]: −0.40 (0.84)
SOFA score evolution (change versus baseline, LOCF), LSMean (SE) [4]: −0.24 (0.33)
SOFA score, estimated difference (SE) vs. placebo [4]: −0.26 (0.74)
SOFA score evolution (change versus baseline, LOCF), LSMean (SE) [5]: −1.52 (0.80)
SOFA score, estimated difference (SE) vs. placebo [5]: −1.14 (1.21)
SOFA score evolution (change versus baseline, LOCF), LSMean (SE) [6]: −2.00 (0.80)
SOFA score, estimated difference (SE) vs. placebo [6]: −1.63 (1.19)
SOFA score evolution (change versus baseline, LOCF), LSMean (SE) [7]: −0.50 (0.69)
SOFA score, estimated difference (SE) vs. placebo [7]: −0.13 (1.13)
SOFA score evolution (change versus baseline, LOCF), LSMean (SE) [8]: −1.34 (0.44)
SOFA score, estimated difference (SE) vs. placebo [8]: −0.97 (1.00)
SOFA score evolution (change versus baseline, LOCF), LSMean (SE) [9]: −2.73 (0.89)
SOFA score, estimated difference (SE) vs. placebo [9]: −2.64 (1.34)
SOFA score evolution (change versus baseline, LOCF), LSMean (SE) [10]: −2.00 (0.89)
SOFA score, estimated difference (SE) vs. placebo [10]: −1.90 (1.32)
SOFA score evolution (change versus baseline, LOCF), LSMean (SE) [11]: −0.39 (0.77)
SOFA score, estimated difference (SE) vs. placebo [11]: −0.30 (1.25)
SOFA score evolution (change versus baseline, LOCF), LSMean (SE) [12]: −1.71 (0.49)
SOFA score, estimated difference (SE) vs. placebo [12]: −1.61 (1.11)
SOFA score evolution (change versus baseline, LOCF), LSMean (SE) [13]: −3.22 (0.94)
SOFA score, estimated difference (SE) vs. placebo [13]: −2.70 (1.41)
SOFA score evolution (change versus baseline, LOCF), LSMean (SE) [14]: −1.83 (0.93)
SOFA score, estimated difference (SE) vs. placebo [14]: −1.31 (1.39)
SOFA score evolution (change versus baseline, LOCF), LSMean (SE) [15]: −0.51 (0.81)
SOFA score, estimated difference (SE) vs. placebo [15]: 0.00 (1.31)
SOFA score evolution (change versus baseline, LOCF), LSMean (SE) [16]: −1.85 (0.52)
SOFA score, estimated difference (SE) vs. placebo [16]: −1.34 (1.16)
SOFA score evolution (change versus baseline, LOCF), LSMean (SE) (patients with high sTREM-1 at baseline (above median 433 pg/mL), Day 5, 0.3 mg/kg/h): −3.20 (0.90)
SOFA score, estimated difference (SE) vs. placebo (patients with high sTREM-1 at baseline (above median 433 pg/mL), Day 5, 0.3 mg/kg/h, 0.3 mg/kg): −2.85 (1.36)
SOFA score, estimated difference (SE) vs. placebo (patients with high sTREM-1 at baseline (above median 433 pg/mL), Day 5, 0.3 mg/kg/h, listed as nangibotide, 0.3 mg/kg): −2.85
SOFA score evolution (change versus baseline, LOCF), LSMean (SE) [17]: −1.83 (0.90)
SOFA score, estimated difference (SE) vs. placebo [17]: −1.48 (1.34)
SOFA score evolution (change versus baseline, LOCF), LSMean (SE) (patients with high sTREM-1 at baseline (above median 433 pg/mL), Day 5, 3.0 mg/kg/h): −0.51 (0.78)
SOFA score, estimated difference (SE) vs. placebo (patients with high sTREM-1 at baseline (above median 433 pg/mL), Day 5, 3.0 mg/kg/h, 3 mg/kg): −0.16 (1.27)
SOFA score, estimated difference (SE) vs. placebo (patients with high sTREM-1 at baseline (above median 433 pg/mL), Day 5, 3.0 mg/kg/h, listed as nangibotide, 3 mg/kg): −0.16
SOFA score evolution (change versus baseline, LOCF), LSMean (SE) (patients with high sTREM-1 at baseline (above median 433 pg/mL), Day 5, all nangibotide doses pooled): −1.85 (0.50)
dose response of SOFA score difference vs. placebo (patients with high sTREM-1 at baseline, 0.3 vs 3 mg/kg/h): inverse dose response
SOFA score evolution (change versus baseline, LOCF), LSMean (SE) [18]: −1.40 (0.80)
SOFA score, estimated difference (SE) vs. placebo [18]: 0.29 (1.13)
SOFA score evolution (change versus baseline, LOCF), LSMean (SE) [19]: −0.01 (0.88)
SOFA score, estimated difference (SE) vs. placebo [19]: 1.67 (1.20)
SOFA score evolution (change versus baseline, LOCF), LSMean (SE) [20]: −0.35 (1.06)
SOFA score, estimated difference (SE) vs. placebo [20]: 1.33 (1.33)
SOFA score evolution (change versus baseline, LOCF), LSMean (SE) [21]: −.059 (0.53)
SOFA score, estimated difference (SE) vs. placebo [21]: 1.10 (0.96)
SOFA score evolution (change versus baseline, LOCF), LSMean (SE) [22]: −2.99 (0.92)
SOFA score, estimated difference (SE) vs. placebo [22]: −0.86 (1.30)
SOFA score evolution (change versus baseline, LOCF), LSMean (SE) [23]: −1.62 (1.02)
SOFA score, estimated difference (SE) vs. placebo [23]: 0.51 (1.38)
SOFA score evolution (change versus baseline, LOCF), LSMean (SE) [24]: −1.87 (1.22)
SOFA score, estimated difference (SE) vs. placebo [24]: 0.26 (1.53)
SOFA score evolution (change versus baseline, LOCF), LSMean (SE) [25]: −2.16 (0.61)
SOFA score, estimated difference (SE) vs. placebo [25]: −0.03 (1.11)
SOFA score evolution (change versus baseline, LOCF), LSMean (SE) [26]: −2.68 (1.02)
SOFA score, estimated difference (SE) vs. placebo [26]: −0.57 (1.44)
SOFA score evolution (change versus baseline, LOCF), LSMean (SE) [27]: −1.51 (1.13)
SOFA score, estimated difference (SE) vs. placebo [27]: 0.61 (1.53)
